According to patent US8367645B2, “Compositions and methods for treating hyperproliferative diseases” (priority 2008, dated 2013):
Marks after values point to notes of the source that are not given here.

How the values were obtained:
[1] = tested on: transplanted human hepatoma (Hep G2 cells); test: Volume of transplanted human hepatoma (Hep G2) in hairless mice; type: in vivo
Experimental: The procedures for performing this test were as follows. Hep G2 cells were prepared at 25*10^6 cells/ml and 0.2 ml of the cell suspension (5*10^6 cells) was injected in an exposed mouse mammary fat pad. When tumors achieved the required size (0.5 cm^3), animals would be treated with 50 μl of B10, dehydrated alcohol or 10% glucose solution once daily for 6 days. During 12 days after the last injection, tumor volume will be assessed by measuring tumor dimensions (long (L) and short (S)) and estimated it as V=0.52*L*S^2. 12 days after the last injection, mice would be sacrificed and tumors would be dissected, weighed and stored in a formaline solution for further evaluation.).

[2] = tested on: B16 (mice melanoma cells); settings: metformin 5 mM alone or in combination
Experimental: Each of the cell samples were then tested in a flow cytometer. The testing methodology and equipment used are set forth as follows. Cells were harvested and washed twice with phosphate buffered saline, (PBS) and fixed in 70% cold ethanol at 4° C. overnight. Before analysis, cells were washed twice with PBS, containing 1% bovine serum albumin (BSA), then resuspended with 400 μl PBS and treated with 100 μg/ml RNase A (Roche Diagnostics) and 50 μg/ml propidium iodide (PI) (Sigma). After incubation for 30 min at 37° C., the cells were subjected to DNA content analysis. propidium iodide, (PI) fluorescence was analyzed with a FACS calibur flowcytometer, (Becton Dickinson). Data from at least 10,000 cells were analyzed with software.
In Example 5, Metformin 5 mM; Metformin 5 mM+aspirin 2 mM; and Metformin 5 mM+aspirin 2 mM+serotonin creatinine sulfate complex 0.001 mM were tested to determine the effect on cell cycle on B16 (mice melanoma cells) during the G1, S and G2 cell phases. The procedure for testing using the flow cytometer was carried out as set forth in Example 1 above.

Row | SMILES | rate of elimination of hepatoma volume [1] [%] | Volume After Treatment ([1]; Hep G2 tumor, 50 μl once daily for 6 days, 10% G.S. 444 ± 199) | Volume Before Treatment ([1]; Hep G2 tumor, before treatment) | Volume Changes ([1]; Hep G2 tumor, ↓ = decrease, 10% G.S. ↑158%) | S ([2]; control 12.8) | G2 ([2]; control 23.1) | G1 ([2]; control 64)
1 | CCO [Dehydration ethanol] | 52.7 | 89 ± 120** | 188 ± 119 | ↓52.7% |  |  | 
2 | CN(C)C(=N)N=C(N)N [Metformin] |  |  |  |  | 4.6 | 23.6 | 71.8
